Values joined by “and” are separate entries in the source; they are usually repeats but may differ in a detail not shown here. Equal values may be shown once. Read-outs that look alike come from different tables or passages of the source.

Test [1] has as its target T1, dihydrolipoamide acyltransferase (DlaT) (Mycobacterium tuberculosis, UniProt P9WIS7).
T1 sequence (P9WIS7 1-553): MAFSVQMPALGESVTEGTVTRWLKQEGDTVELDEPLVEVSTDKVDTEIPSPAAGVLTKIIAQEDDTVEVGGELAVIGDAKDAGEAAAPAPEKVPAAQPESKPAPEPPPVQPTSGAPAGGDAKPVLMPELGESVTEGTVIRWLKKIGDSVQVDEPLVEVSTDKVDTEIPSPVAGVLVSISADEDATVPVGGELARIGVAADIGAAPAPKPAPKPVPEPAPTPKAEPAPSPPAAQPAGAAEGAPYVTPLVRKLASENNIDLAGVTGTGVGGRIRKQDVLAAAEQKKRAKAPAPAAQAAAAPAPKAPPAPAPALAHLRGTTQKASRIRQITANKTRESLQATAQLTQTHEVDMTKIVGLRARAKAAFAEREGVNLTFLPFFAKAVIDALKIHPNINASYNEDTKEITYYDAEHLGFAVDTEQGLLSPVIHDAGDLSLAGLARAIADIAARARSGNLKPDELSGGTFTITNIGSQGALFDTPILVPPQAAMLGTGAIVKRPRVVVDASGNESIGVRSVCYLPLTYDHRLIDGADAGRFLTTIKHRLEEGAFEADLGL
Briefly: DlaT inhibition (Dlat IC50); DTNB peroxidase assay with Lpd, DlaT and AhpD. In kind it is biochemical.

The target in the next test is T2, Mtb's PDH (Mycobacterium tuberculosis, UniProt P9WIS7).
T2 sequence (P9WIS7 1-553): T1 sequence (P9WIS7 1-553)
Briefly: PDH assay with Lpd, DlaT and AceE (NADH formation at 340 nm). The format is biochemical. The note with it: preincubation at room temperature, remaining activity over time; FIG. 4. The procedure: Reaction mixtures containing 200 nM Lpd, 350 nM DlaT, 200 nM AceE with or without 1 mM NAD+, 1 mM pyruvate, […] and […] D155931 were preincubated at room temperature and […] tested for remaining activity over time by PDH assay.

Test [2] deals with Mycobacterium bovis var. Bacille Calmette Guerin (BCG). The format is cell-based. Particulars: pH 5.5 or pH 4.5, plus or minus NaNO2, 4 days, CFU; FIGS. 6 and 7.
The next test relates to bacteria and yeast. Particulars: 10^4-10^5 CFU/mL inoculum.
Another test deals with Staphylococcus aureus. Briefly: MIC determination (A600 after 24 hours). The note with it: for MIC: Staphylococcus aureus, 10^4-10^5 CFU/mL inoculum.
Another test has as its system Enterococcus faecalis. Briefly: MIC determination (A600 after 24 hours). Particulars: for MIC: Enterococcus faecalis.
Test [3] concerns PDH complex from porcine heart. Briefly: PDH assay with porcine heart PDH complex. The note with it: increasing concentrations up the limit of its solubility; FIG. 5.
Test [4] has as its system Mycobacterium tuberculosis. Briefly: Killing of M. tuberculosis at acidic pH plus or minus nitrite (CFU counts). The note with it: pH 5.5 or pH 4.5, plus or minus NaNO2, 4 days, FIG. 8.
Description: In vitro, RNI can be generated under physiologically relevant conditions by provision of nitrite at a mildly acidified pH. During infection, Mtb resides chiefly in the phagosome of macrophages, where the pH is ˜6 in immunologically non-activated cells and can fall to ˜4.5 in those that have been activated by interferon-γ. Activated macrophages produce RNI, the most abundant of which is the accumulating autoxidation product of NO, nitrite (NO2^−). In the present assay, the intraphagosomal milieu of moderately activated macrophages was partially mimicked by culturing mycobacteria at pH 5.5 with nitrite. […] At pH 5.5, 0.5 mM nitrite generates an amount of NO no greater than that released by 3×10^5 activated macrophages in 0.5 mL in 24 hours. In the present assay pH 5.5, with or without 0.5 mM nitrite, was used.
M. tuberculosis was grown in 7H9+0.2% glycerol+0.05% Tween-80+10% ADN, pH 6.6. CFU were enumerated on 7H11 agar plates with 10% OADC enrichment. Mid-log cultures (A580 0.8-1.0) were prepared as single cell suspensions in 7H9 at pH 5.5 or pH 4.5 and diluted to 0.1 (A580). Inoculum was determined by CFU. Bacteria were incubated with compounds plus or minus 0.5 mM NaNO2 (pH 5.5) or 0.05 NaNO2 (pH 4.5) in 96 well plates in 200 μl for 4 days and plated for CFU counts after serial dilution in 7H9, pH 6.6.
The mark [5] stands for this setting: Table 1, Compounds A1 to A294, read-out: Dlat IC50 category.

Protocol for Enterococcus faecalis: (§1) Bacteria were grown to mid-logarithmic phase, diluted to A600=0.1 and inoculated in 200 μl in 96-well plates in the presence of serial dilutions of compounds or vehicle control (DMSO). MICs (minimal concentrations that prevented bacterial growth) were determined at A600 after 24 hours incubation at 37° C.
Protocol for Staphylococcus aureus: as §1
Protocol for bacteria and yeast: as §1

What is called IC50 is the concentration that inhibits the measured activity by half. The MIC is the smallest concentration in the dilution series that meets the test's criterion for growth inhibition. Lower therefore signals inhibition by little substance. For the molecule `O=C(O)c1cccc(N2C(=O)C(=Cc3ccc(-c4ccccc4Cl)o3)SC2=S)c1` (single isomer, unassigned) [Mycopyrin 5, 3-[5[[5-(2-chlorophenyl)-2-furanyl]methylene]-4-oxo-2-thioxo-3-thiazolidinyl]benzoic acid], in test [1] (Dlat IC50 category, Table 1, Compounds A1 to A294), the half-inhibitory concentration (IC50) lay in the range of 11 to 40 µM. For the same molecule, the “reversibility of DlaT inhibition” value in test [1] (in presence of NADH, preincubation at room temperature, remaining activity over time, FIG. 3) was “irreversible inhibitor”. For the same molecule, on Mtb's PDH, the “type of inhibition of Mtb's PDH” value is on record as “time-dependent, substrate-independent inhibitor”. The “bactericidal activity to M. bovis BCG” value in test [2] is listed as “bactericidal”. For the same molecule, the minimal inhibitory concentration (MIC) is >50 μM and >22 μg/ml against bacteria and yeast (Escherichia coli, pH 5.5); >50 μM and >22 μg/ml against bacteria and yeast (Escherichia coli, pH 6.6); >50 μM and >22 μg/ml against bacteria and yeast (Pseudomonas aeruginosa, pH 5.5); >50 μM and >22 μg/ml in the test on bacteria and yeast (Pseudomonas aeruginosa, pH 6.6); 5 µM and 2.2 µg/mL against Staphylococcus aureus (pH 5.5, Staphylococcus aureus (brain heart infusion), pH 5.5); 1 µM and 0.43 µg/mL against Staphylococcus aureus (pH 5.5, Staphylococcus aureus (nutrient broth), pH 5.5). Besides, the MIC in the test on Staphylococcus aureus (pH 6.6, Staphylococcus aureus (brain heart infusion), pH 6.6) is > 50 µM and > 22 µg/mL; against Staphylococcus aureus (pH 6.6, Staphylococcus aureus (nutrient broth), pH 6.6), 2.5 µM and 1.1 µg/mL; against Enterococcus faecalis (pH 5.5), 5 µM and 2.2 µg/mL; against Enterococcus faecalis (pH 6.6), > 50 µM and > 22 µg/mL. Moreover, the “killing of Staphylococcus aureus” value in the test with Staphylococcus aureus (Table 22) is reported as “kills”. The “killing of Enterococcus faecalis” value with Enterococcus faecalis (Table 22) was “kills”. For the same molecule, the “inhibition of porcine PDH” value in test [3] was “does not inhibit”. In addition, in test [4], the “bactericidal activity to Mycobacterium tuberculosis” value is “bactericidal”.
`Cc1cc(Cl)ccc1-c1ccc(C=C2SC(=S)N(Nc3ccccc3C(=O)O)C2=O)o1` [Compound D23, 2-{5-[1-[5-(4-chloro-2-methyl-phenyl)-furan-2-yl]-methylidene]-4-oxo-2-thioxo-thiazolidin-3-ylamino}-benzoic acid] yielded a 50% inhibitory concentration (IC50) in test [1] (Dlat IC50 category) of less than 10 µM.
With `CC(=O)NS(=O)(=O)c1cccc(N2C(=O)C(=Cc3ccc(-c4cccc(C(F)(F)F)c4)o3)SC2=S)c1` [Compound A38], the IC50 in test [1] (setting [5]) is less than 10 µM.
Same read-out and setting: the result for `O=C(O)c1ccc(F)c(N2C(=O)C(=Cc3ccc(-c4ccc(F)cc4F)o3)SC2=S)c1` [Compound A154] reads less than 10 µM.
In test [1] (Dlat IC50 category), `O=C(O)C(c1ccccc1)N1C(=O)C(=Cc2ccc(-c3ccc(Cl)cc3)o2)SC1=S` (stereo not shown) [Compound B9] yielded an IC50 of less than 10 µM.
Same read-out and setting: the same measure for `O=C(O)C1CCCC(N2C(=O)C(=Cc3ccc(-c4ccccc4OCc4ccccc4)o3)SC2=S)C1` (stereo not shown) [Compound C27, 3-{5-[1-[5-(2-benzyloxy-phenyl)-furan-2-yl]-methylidene]-4-oxo-2-thioxo-thiazolidin-3-yl}-cyclohexanecarboxylic acid]: less than 10 µM.
With `O=C(O)CCc1cccc(N2C(=O)C(=Cc3ccc(-c4ccc(Cl)cc4)o3)SC2=S)c1` [Compound A120], the 50% inhibitory concentration (IC50) in test [1] (setting [5]) is less than 10 µM.
`O=C(O)CCCCCN1C(=O)C(=Cc2ccc(-c3cccc(C(F)(F)F)c3)o2)SC1=S` [Compound B22] showed an IC50 in test [1] (Dlat IC50 category) of less than 10 µM.
Same read-out and setting: the result for `O=C(O)CCCCCN1C(=O)C(=Cc2ccc(-c3ccccc3Cl)o2)SC1=S` [Compound B11] reads less than 10 µM.
Take `CC(=O)c1ccc(-c2ccc(C=C3SC(=S)N(c4cc(C(=O)O)ccc4F)C3=O)o2)cc1` [Compound A207]: in test [1] (setting [5]), the IC50 is less than 10 µM.
`CC(C)C(C(=O)O)N1C(=O)C(=Cc2ccc(-c3ccc(F)cc3)o2)SC1=S` (stereo not shown) [Compound B107]: the 50% inhibitory concentration (IC50) in test [1] (Dlat IC50 category) lay in the range of 11 to 40 µM.
For `O=C(O)c1cccc(N2C(=O)C(=Cc3ccc(-c4ccc(Cc5ccccc5)cc4)o3)SC2=S)c1` [Compound A3], in test [1] (setting [5]), the 50% inhibitory concentration (IC50) was less than 10 µM.
The same measure, in the same setting: the result for `COc1ccc(C(=O)O)cc1N1C(=O)C(=Cc2ccc(-c3ccccc3Cl)o2)SC1=S` [Compound A74] reads less than 10 µM.
Same read-out and setting: the same measure for `O=C(O)c1cc(N2C(=O)C(=Cc3ccc(-c4ccc(Cl)c(Cl)c4)o3)SC2=S)ccc1Cl` [Compound A108]: less than 10 µM.
In the case of `O=C(O)c1ccccc1NN1C(=O)C(=Cc2ccc(-c3ccccc3O)o2)SC1=S` [Compound D12, 2-{5-[1-[5-(2-Hydroxy-phenyl)-furan-2-yl]-methylidene]-4-oxo-2-thioxo-thiazolidin-3-ylamino}-benzoic acid], in test [1] (Dlat IC50 category), the IC50 was less than 10 µM.
On the same count and under the same terms, the same measure for `O=C(O)CCN1C(=O)C(=Cc2cccc(-c3ccccc3Cl)n2)SC1=S` [Compound B7]: 41 to 80 µM.
For `CSc1cccc(-c2ccc(C=C3SC(=S)N(c4cccc(C(=O)O)c4)C3=O)o2)c1` [Compound A236], the concentration for half-maximal inhibition (IC50) in test [1] (setting [5]) is less than 10 µM.

The record behind these values is patent US8338465B2, “Cyclic carboxylic acid rhodanine derivatives for the treatment and prevention of tuberculosis” (priority 2006, dated 2012).
